Test results: article PMC6001238, “Iterative Chemical Engineering of Vancomycin Leads to Novel Vancomycin Analogs With a High in Vitro Therapeutic Index” (Frontiers in Microbiology, 2018)
≈ marks a conversion by molar mass, not a printed value.

Tests used:
S. aureus VISA/HIP5827 = assay: MIC, broth microdilution, vancomycin-intermediate S. aureus VISA HIP5827; format: cell-based, Staphylococcus aureus; conditions: for MIC: Staphylococcus aureus VISA/HIP5827, read-out: MIC; for MIC-fold improvement vs. vancomycin: VISA/HIP5827, ratio of MIC of vancomycin and MIC of analogue
Outline: (§1)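 Broth microdilution per CLSI; controls = ultrapure water, non-inoculated broth. One set: + vancomycin 10 μM final alongside test analogue/control drug.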

[1] = test system: S. aureus VSSA (ATCC 6538); assay: MIC, broth microdilution, vancomycin-sensitive S. aureus (VSSA/MSSA, ATCC 6538); format: cell-based, Staphylococcus aureus; conditions: for MIC: Staphylococcus aureus VSSA, read-out: MIC; for MIC-fold improvement vs. vancomycin: VSSA, ratio of MIC of vancomycin and MIC of analogue
Outline: as §1

[2] = test system: human T-lymphocyte (CEM) cells; assay: Cytostatic activity, CEM cell proliferation; format: cell-based; conditions: mean ± SD of three experiments; highest concentration tested 250 µM; 3 days; read-out: Toxicity (IC50) CEM
Outline: (§2)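 Readout: Coulter cell number after drug exposure at 37°C. Durations differ by line (L1210 2 days; CEM 3 days; HeLa 4 days). Stock suspension 300,000–500,000 cells/mL, diluted by mixing with compound. Endpoint: IC50 vs negative control.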

MRSA KS2 = assay: MIC, broth microdilution, MRSA KS2; format: cell-based, Staphylococcus aureus; conditions: for MIC-fold improvement vs. vancomycin: MRSA KS2, ratio of MIC of vancomycin and MIC of analogue; for MIC: Staphylococcus aureus MRSA KS2, read-out: MIC
Outline: as §1

E. faecalis VRE 37 = assay: MIC, broth microdilution, vancomycin-resistant E. faecalis VRE 37 (VanA); format: cell-based, Enterococcus faecalis; conditions: for MIC: Enterococcus faecalis VRE 37 (vancomycin-resistant), read-out: MIC; for MIC-fold improvement vs. vancomycin: VRE 37, ratio of MIC of vancomycin and MIC of analogue
Outline: as §1

[3] = test system: human cervix carcinoma (HeLa) cells; assay: Cytostatic activity, HeLa cell proliferation; format: cell-based; conditions: mean ± SD of three experiments; highest concentration tested 250 µM; 4 days; read-out: Toxicity (IC50) HeLa
Outline: as §2

MRSA KS1 = assay: MIC, broth microdilution, MRSA KS1; format: cell-based, Staphylococcus aureus; conditions: for MIC-fold improvement vs. vancomycin: MRSA KS1, ratio of MIC of vancomycin and MIC of analogue; for MIC: Staphylococcus aureus MRSA KS1, read-out: MIC
Outline: as §1

S. aureus VRSA = assay: MIC, broth microdilution, vancomycin-resistant S. aureus (VRSA); format: cell-based, Staphylococcus aureus; conditions: for MIC: Staphylococcus aureus VRSA, read-out: MIC; for MIC-fold improvement vs. vancomycin: VRSA, ratio of MIC of vancomycin and MIC of analogue
Outline: as §1

[4] = test system: L1210, CEM and HeLa cell lines; assay: Cytostatic activity, average or summary over L1210, CEM and HeLa; format: cell-based; conditions: average of L1210, CEM and HeLa; read-out: Toxicity (IC50) Average
Outline: as §2

E. faecalis VRE 53 = assay: MIC, broth microdilution, vancomycin-resistant E. faecalis VRE 53 (VanA); format: cell-based, Enterococcus faecalis; conditions: for MIC: Enterococcus faecalis VRE 53 (vancomycin-resistant), read-out: MIC; for MIC-fold improvement vs. vancomycin: VRE 53, ratio of MIC of vancomycin and MIC of analogue
Outline: as §1

[5] = test system: Murine leukemia (L1210) cells; assay: Cytostatic activity, L1210 cell proliferation; format: cell-based; conditions: mean ± SD of three experiments; highest concentration tested 250 µM; 2 days; read-out: Toxicity (IC50) L1210
Outline: as §2

MRSA KS6 = assay: MIC, broth microdilution, MRSA KS6; format: cell-based, Staphylococcus aureus; conditions: for MIC-fold improvement vs. vancomycin: MRSA KS6, ratio of MIC of vancomycin and MIC of analogue; for MIC: Staphylococcus aureus MRSA KS6, read-out: MIC
Outline: as §1

E. faecalis VRE 29 = assay: MIC, broth microdilution, vancomycin-resistant E. faecalis VRE 29 (VanA); format: cell-based, Enterococcus faecalis; conditions: for MIC: Enterococcus faecalis VRE 29 (vancomycin-resistant), read-out: MIC; for MIC-fold improvement vs. vancomycin: VRE 29, ratio of MIC of vancomycin and MIC of analogue
Outline: as §1

MRSA KS89 = assay: MIC, broth microdilution, MRSA KS89; format: cell-based, Staphylococcus aureus; conditions: for MIC-fold improvement vs. vancomycin: MRSA KS8, ratio of MIC of vancomycin and MIC of analogue; for MIC: Staphylococcus aureus MRSA KS8, read-out: MIC
Outline: as §1

E. faecalis VSE 1 = assay: MIC, broth microdilution, vancomycin-sensitive E. faecalis (VSE 1); format: cell-based, Enterococcus faecalis; conditions: for MIC: Enterococcus faecalis VSE 1 (vancomycin-sensitive), read-out: MIC; for MIC-fold improvement vs. vancomycin: VSE 1, ratio of MIC of vancomycin and MIC of analogue
Outline: as §1

E. faecalis VRE 6 = assay: MIC, broth microdilution, vancomycin-resistant E. faecalis VRE 6 (VanA); format: cell-based, Enterococcus faecalis; conditions: for MIC: Enterococcus faecalis VRE 6 (vancomycin-resistant), read-out: MIC; for MIC-fold improvement vs. vancomycin: VRE 6, ratio of MIC of vancomycin and MIC of analogue
Outline: as §1

Row | Compound | MIC (S. aureus VISA/HIP5827) | MIC-fold improvement vs. vancomycin (S. aureus VISA/HIP5827) | MIC [1] | MIC-fold improvement vs. vancomycin [1] | IC50 [2] | MIC-fold improvement vs. vancomycin (MRSA KS2) | MIC (MRSA KS2) | MIC (E. faecalis VRE 37) | MIC-fold improvement vs. vancomycin (E. faecalis VRE 37) | IC50 [3] | MIC-fold improvement vs. vancomycin (MRSA KS1) | MIC (MRSA KS1) | MIC (S. aureus VRSA) | MIC-fold improvement vs. vancomycin (S. aureus VRSA) | IC50 [4] | MIC (E. faecalis VRE 53) | MIC-fold improvement vs. vancomycin (E. faecalis VRE 53) | IC50 [5] | MIC-fold improvement vs. vancomycin (MRSA KS6) | MIC (MRSA KS6) | other results
1 | CNC(CC(C)C)C(=O)NC1C(=O)NC(CC(N)=O)C(=O)NC2C(=O)NC3C(=O)NC(C(=O)NC(C(=O)NCC(=O)Nc4ccc(-c5cn(-c6ccc(OC)cc6)nn5)cc4)c4cc(O)cc(O)c4-c4cc3ccc4O)C(O)c3ccc(c(Cl)c3)Oc3cc2cc(c3OC2OC(CO)C(O)C(O)C2OC2CC(C)(N)C(O)C(C)O2)Oc2ccc(cc2Cl)C1O (stereo not shown) [Vanc-72] | 0.78 µM (≈ 1.37 µg/mL) | 8 | 0.39 µM (≈ 0.684 µg/mL) | 2 | 17 ± 1 µM | 4 | 0.20 µM (≈ 0.351 µg/mL) | 6.25 µM (≈ 11 µg/mL) | 64 | 25 ± 10 µM | 0.5 | 1.56 µM (≈ 2.74 µg/mL) | 0.78 µM (≈ 1.37 µg/mL) | 128 | 72 µM | 6.25 µM (≈ 11 µg/mL) | 64 | 173 ± 106 µM | 4 | 0.20 µM (≈ 0.351 µg/mL) | MIC (E. faecalis VRE 29): 6.25 µM (≈ 11 µg/mL); MIC-fold improvement vs. vancomycin (E. faecalis VRE 29): 64; MIC-fold improvement vs. vancomycin (MRSA KS89): 4; MIC (MRSA KS89): 0.20 µM (≈ 0.351 µg/mL); MIC (E. faecalis VSE 1): 0.78 µM (≈ 1.37 µg/mL); MIC-fold improvement vs. vancomycin (E. faecalis VSE 1): 2; MIC (E. faecalis VRE 6): 3.13 µM (≈ 5.49 µg/mL); MIC-fold improvement vs. vancomycin (E. faecalis VRE 6): 64
2 | CNC(CC(C)C)C(=O)NC1C(=O)NC(CC(N)=O)C(=O)NC2C(=O)NC3C(=O)NC(C(=O)NC(C(=O)NCCCNC(=O)c4ccc(C(C)(C)C)cc4)c4cc(O)cc(O)c4-c4cc3ccc4O)C(O)c3ccc(c(Cl)c3)Oc3cc2cc(c3OC2OC(CO)C(O)C(O)C2OC2CC(C)(N)C(O)C(C)O2)Oc2ccc(cc2Cl)C1O (stereo not shown) [Vanc-73] | 1.56 µM (≈ 2.6 µg/mL) | 4 | 0.78 µM (≈ 1.3 µg/mL) | 1 | 130 ± 6 µM | 2 | 0.39 µM (≈ 0.65 µg/mL) | 25 µM (≈ 41.6 µg/mL) | 16 | 81 ± 6 µM | 1 | 0.78 µM (≈ 1.3 µg/mL) | 6.25 µM (≈ 10.4 µg/mL) | 16 | 106 µM | 25 µM (≈ 41.6 µg/mL) | 16 | 108 ± 42 µM | 2 | 0.39 µM (≈ 0.65 µg/mL) | MIC (E. faecalis VRE 29): 12.5 µM (≈ 20.8 µg/mL); MIC-fold improvement vs. vancomycin (E. faecalis VRE 29): 32; MIC-fold improvement vs. vancomycin (MRSA KS89): 2; MIC (MRSA KS89): 0.39 µM (≈ 0.65 µg/mL); MIC (E. faecalis VSE 1): 0.78 µM (≈ 1.3 µg/mL); MIC-fold improvement vs. vancomycin (E. faecalis VSE 1): 2; MIC (E. faecalis VRE 6): 6.25 µM (≈ 10.4 µg/mL); MIC-fold improvement vs. vancomycin (E. faecalis VRE 6): 32
3 | CCCCCc1ccc(NC(=O)CNC(=O)[C@H]2NC(=O)[C@H]3NC(=O)[C@H](NC(=O)[C@@H]4NC(=O)[C@H](CC(N)=O)NC(=O)[C@H](NC(=O)[C@@H](CC(C)C)NC)[C@H](O)c5ccc(c(Cl)c5)Oc5cc4cc(c5O[C@@H]4O[C@H](CO)[C@@H](O)[C@H](O)[C@H]4O[C@H]4C[C@](C)(N)[C@H](O)[C@H](C)O4)Oc4ccc(cc4Cl)[C@H]3O)c3ccc(O)c(c3)-c3c(O)cc(O)cc32)cc1 [Vanc-74] | 0.78 µM (≈ 1.29 µg/mL) | 8 | 0.39 µM (≈ 0.644 µg/mL) | 2 | 78 ± 20 µM | 4 | 0.20 µM (≈ 0.33 µg/mL) | 6.25 µM (≈ 10.3 µg/mL) | 64 | 102 ± 46 µM | 1 | 0.78 µM (≈ 1.29 µg/mL) | 1.56 µM (≈ 2.58 µg/mL) | 64 | 143 µM | 6.25 µM (≈ 10.3 µg/mL) | 64 | ≥ 250 µM | 4 | 0.20 µM (≈ 0.33 µg/mL) | MIC (E. faecalis VRE 29): 12.5 µM (≈ 20.6 µg/mL); MIC-fold improvement vs. vancomycin (E. faecalis VRE 29): 32; MIC-fold improvement vs. vancomycin (MRSA KS89): 4; MIC (MRSA KS89): 0.20 µM (≈ 0.33 µg/mL); MIC (E. faecalis VSE 1): 0.39 µM (≈ 0.644 µg/mL); MIC-fold improvement vs. vancomycin (E. faecalis VSE 1): 4; MIC (E. faecalis VRE 6): 1.56 µM (≈ 2.58 µg/mL); MIC-fold improvement vs. vancomycin (E. faecalis VRE 6): 128
4 | CCCCCCc1ccc(NC(=O)CNC(=O)[C@H]2NC(=O)[C@H]3NC(=O)[C@H](NC(=O)[C@@H]4NC(=O)[C@H](CC(N)=O)NC(=O)[C@H](NC(=O)[C@@H](CC(C)C)NC)[C@H](O)c5ccc(c(Cl)c5)Oc5cc4cc(c5O[C@@H]4O[C@H](CO)[C@@H](O)[C@H](O)[C@H]4O[C@H]4C[C@](C)(N)[C@H](O)[C@H](C)O4)Oc4ccc(cc4Cl)[C@H]3O)c3ccc(O)c(c3)-c3c(O)cc(O)cc32)cc1 [Vanc-75] | 0.78 µM (≈ 1.3 µg/mL) | 8 | 0.78 µM (≈ 1.3 µg/mL) | 1 | 15 ± 3 µM | 4 | 0.20 µM (≈ 0.333 µg/mL) | 3.13 µM (≈ 5.21 µg/mL) | 128 | 83 ± 4 µM | 4 | 0.20 µM (≈ 0.333 µg/mL) | 1.56 µM (≈ 2.6 µg/mL) | 64 | 38 µM | 3.13 µM (≈ 5.21 µg/mL) | 128 | 17 ± 7 µM | 2 | 0.39 µM (≈ 0.65 µg/mL) | MIC (E. faecalis VRE 29): 3.13 µM (≈ 5.21 µg/mL); MIC-fold improvement vs. vancomycin (E. faecalis VRE 29): 128; MIC-fold improvement vs. vancomycin (MRSA KS89): 4; MIC (MRSA KS89): 0.20 µM (≈ 0.333 µg/mL); MIC (E. faecalis VSE 1): 0.78 µM (≈ 1.3 µg/mL); MIC-fold improvement vs. vancomycin (E. faecalis VSE 1): 2; MIC (E. faecalis VRE 6): 3.13 µM (≈ 5.21 µg/mL); MIC-fold improvement vs. vancomycin (E. faecalis VRE 6): 64
